≈ marks a conversion by molar mass, not a printed value. Starred links: 1 amine or outer side, 2 acyl side, 3 side chain; linkers in the order of their positions; H or OH if unused. Non-standard residues stand in square brackets, D forms with d. Residues, ends and D or L forms follow the SMILES beside them. Groups on a side chain read outwards from the residue. *: point of attachment. C18 diacid = O=C(O)CCCCCCCCCCCCCCCCC(=O)*; γGlu = O=C(O)[C@H](CCC(=O)[*:2])N[*:1]; Palmitoyl = CCCCCCCCCCCCCCCC(=O)*; AEEA = NCCOCCOCC(=O)O
How the values were obtained:
rat CRF2R α receptor = experiment: cAMP agonism at rat CRF2R α receptor in A7R5 rat aortic smooth muscle cells (Example 8); type: cell-based; conditions: cAMP HTRF, A7R5 rat aortic smooth muscle cell line, 0% HSA
Procedure, shortened: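 Thawed cryopreserved A7R5 cells in HBSS/20 mM HEPES (0 or 0.1% HSA) with 2 mM IBMX, 2000 cells/well, were exposed to compound for 30 min at room temperature. cAMP was read by HTRF (665/620 nm ratio) after 1 h with lysis reagents. Activity was normalised to 1000 nM urocortin 2 as 100%, and EC50 was taken as the concentration giving 50% of maximal activation.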

human CRF2α receptor = target: T1, human CRF2α receptor (Homo sapiens, UniProt Q13324); experiment: cAMP agonism at human CRF2 α receptor in TeloHEAC cells (Example 7); type: cell-based; conditions: cAMP HTRF, TeloHEAC cells stably expressing human CRF2 α, 0% HSA; read-out: EC50 [nM], 0% HSA
T1 construct: expressed in transfected cells; host or cells: TeloHEAC
T1 sequence (Q13324 1-411): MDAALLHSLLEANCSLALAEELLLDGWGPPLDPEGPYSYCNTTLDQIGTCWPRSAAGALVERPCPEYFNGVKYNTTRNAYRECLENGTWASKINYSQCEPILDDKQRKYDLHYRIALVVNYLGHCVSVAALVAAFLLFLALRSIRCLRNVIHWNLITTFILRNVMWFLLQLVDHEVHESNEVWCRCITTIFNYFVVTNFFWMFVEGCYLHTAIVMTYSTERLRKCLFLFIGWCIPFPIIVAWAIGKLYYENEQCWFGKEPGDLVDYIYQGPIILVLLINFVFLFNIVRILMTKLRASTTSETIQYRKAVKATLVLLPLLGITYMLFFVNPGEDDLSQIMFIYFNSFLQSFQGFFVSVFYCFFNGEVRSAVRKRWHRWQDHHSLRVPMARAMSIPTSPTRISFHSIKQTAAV
Procedure, shortened: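 Steps: thaw and wash cells; suspend in 1×HBSS, 20 mM HEPES, 0 or 0.1% HSA, 2 mM IBMX; add compound, 30 min RT; lyse with HTRF reagents, 1 h; read 665/620 nm. EC50 calculated, E% versus 1000 nM UCN2.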

[1] = Solubility in buffer systems by UPLC-UV (Example 13); type: physicochemical
Description: Prior to performing the solubility measurements, the purity of the compounds was determined through UPLC/MS. […] Therefore, solutions from solid samples were prepared in a buffer system with a concentration of 10 mg/mL compound based on the previously determined % purity.
UPLC-UV was performed after 1 hour of gentle agitation from the supernatant, which was obtained after 15 minutes of centrifugation at 2500 RCF (relative centrifugal acceleration). The solubility was determined by the comparison of the UV peak area of a 2 μL-injection of a buffered sample diluted 1:10 with a standard curve of a reference compound with known concentration. The different UV extinction coefficients of sample and reference compound were calculated based on the different amino acid sequences and considered in the concentration calculation.

CRF1R receptor = target: T2, CRF1R receptor (Homo sapiens, UniProt P34998); experiment: cAMP activity at anti-target CRF1R, CRF1R-overexpression CHO cell line (Example 9); type: cell-based; conditions: CRF1R-overexpression CHO cell line; for EC50: 0% HSA; for Emax: read-out: Emax (%)
T2 construct: host or cells: CHO-K1 clone 2
T2 sequence (P34998 24-415): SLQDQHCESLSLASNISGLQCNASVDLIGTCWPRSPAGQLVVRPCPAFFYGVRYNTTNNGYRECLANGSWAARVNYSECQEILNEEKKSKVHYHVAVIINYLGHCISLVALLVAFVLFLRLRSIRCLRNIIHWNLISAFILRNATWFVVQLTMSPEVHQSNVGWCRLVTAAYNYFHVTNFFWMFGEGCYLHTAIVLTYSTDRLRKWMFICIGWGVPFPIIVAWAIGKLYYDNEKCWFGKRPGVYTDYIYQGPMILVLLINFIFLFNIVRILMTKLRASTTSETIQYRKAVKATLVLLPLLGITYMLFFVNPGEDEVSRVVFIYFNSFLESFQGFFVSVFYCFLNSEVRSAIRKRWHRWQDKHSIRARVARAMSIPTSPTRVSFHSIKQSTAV
Procedure, shortened: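 cAMP accumulation was read by HTRF after 30 min at room temperature of compound treatment. Cells were cryopreserved CHO cells overexpressing CRF1R, plated at 2000/well in IBMX (2 mM)-containing HBSS/HEPES buffer with 0 or 0.1% HSA. Activity was normalized to 1000 nM UCN2 as 100%.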

[2] = pH 7.4, Solubility in Buffer C [mg/ml]

| EC50 (rat CRF2R α receptor) | EC50 (human CRF2α receptor) | solubility at 1 h ([1]; pH 4.5, Solubility in Buffer A [mg/ml]) | solubility at 1 h ([1]; pH 4.5, Solubility in Buffer B [mg/ml]) | EC50 (CRF1R receptor) | Emax (CRF1R receptor) | solubility at 1 h [1, 2] | SMILES |
| --- | --- | --- | --- | --- | --- | --- | --- |
| 0.02 nM | 0.03 nM | > 10200 µg/mL | > 9300 µg/mL |  |  |  | CCCCCCCCCCCCCCCC(=O)N[C@@H](CCC(=O)NCCCC[C@H](NC(=O)[C@H](CC(C)C)NC(=O)[C@H](CCCCN)NC(=O)[C@@H](NC(=O)[C@@H]1CCCN1C(=O)[C@H](NC(=O)[C@H](CC(=O)O)NC(=O)[C@H](CC(C)C)NC(=O)[C@H](CO)NC(=O)[C@H](CC(C)C)NC(=O)[C@@H](NC(=O)[C@@H](N)[C@@H](C)CC)C(C)C)C(C)C)[C@@H](C)O)C(=O)N[C@@H](CCC(N)=O)C(=O)N[C@@H](CCCCN)C(=O)N[C@@H](CC(C)C)C(=O)N[C@@H](CC(C)C)C(=O)N[C@@H](CCCCN)C(=O)N[C@@H](CCC(N)=O)C(=O)N[C@@H](CCC(=O)O)C(=O)N[C@@H](CCCNC(=N)N)C(=O)N[C@@H](CCC(N)=O)C(=O)N[C@@H](CCCNC(=N)N)C(=O)N[C@@H](CCCCN)C(=O)N[C@@H](CCC(=O)O)C(=O)N[C@@H](CCCNC(=N)N)C(=O)N[C@@H](CCC(=O)O)C(=O)N[C@@H](CCC(N)=O)C(=O)N[C@@H](C)C(=O)N[C@@H](CCC(=O)O)C(=O)N[C@@H](CCCCN)C(=O)N[C@@H](CC(N)=O)C(=O)N[C@@H](CCCCN)C(=O)N[C@@H](CCCNC(=N)N)C(=O)N[C@H](C(=O)N[C@@H](CC(C)C)C(=O)N[C@@H](CCC(=O)O)C(=O)N[C@@H](CCCNC(=N)N)C(=O)N[C@H](C(N)=O)C(C)C)[C@@H](C)CC)C(=O)O [compound 18] (H-IVLSLD[dV]PTKLK([γGlu-Palmitoyl])QKLLKQERQRKEREQAEKNKRILERV-NH2) |
|  | 0.01 nM |  |  | > 1000 nM | 27% | 8600 µg/mL (≈ 1730 µM) | CCCCCCCCCCCCCCCC(=O)N[C@@H](CCC(=O)NCCCC[C@H](NC(=O)[C@H](CC(C)C)NC(=O)[C@H](CCCCN)NC(=O)[C@@H](NC(=O)[C@@H]1CCCN1C(=O)[C@H](NC(=O)[C@H](CC(=O)O)NC(=O)[C@H](CC(C)C)NC(=O)[C@H](CO)NC(=O)[C@H](CC(C)C)NC(=O)[C@@H](NC(=O)[C@@H](N)[C@@H](C)CC)C(C)C)C(C)C)[C@@H](C)O)C(=O)N[C@@H](CCC(N)=O)C(=O)N[C@@H](CCCCN)C(=O)N[C@@H](CC(C)C)C(=O)N[C@@H](CC(C)C)C(=O)N[C@@H](CCCCN)C(=O)N[C@@H](CCC(N)=O)C(=O)N[C@@H](CCC(=O)O)C(=O)N[C@@H](CCCNC(=N)N)C(=O)N[C@@H](CCC(N)=O)C(=O)N[C@@H](CCCNC(=N)N)C(=O)N[C@@H](CCCCN)C(=O)N[C@@H](CCC(=O)O)C(=O)N[C@@H](CCCNC(=N)N)C(=O)N[C@@H](CCC(=O)O)C(=O)N[C@@H](CCC(N)=O)C(=O)N[C@@H](C)C(=O)N[C@@H](CCC(=O)O)C(=O)N[C@@H](CCCCN)C(=O)N[C@@H](CC(N)=O)C(=O)N[C@H](C(=O)N[C@@H](CCCNC(=N)N)C(=O)N[C@H](C(=O)N[C@@H](CC(C)C)C(=O)N[C@@H](CCC(=O)O)C(=O)N[C@@H](CCCNC(=N)N)C(=O)N[C@H](C(N)=O)C(C)C)[C@@H](C)CC)C(C)C)C(=O)O [compound 32] (H-IVLSLD[dV]PTKLK([γGlu-Palmitoyl])QKLLKQERQRKEREQAEKNVRILERV-NH2) |
| 2.04 nM | 0.65 nM |  |  | > 1000 nM | 13.3% | 10300 µg/mL (≈ 2000 µM) | CC[C@H](C)[C@H](N)C(=O)N[C@H](C(=O)N[C@@H](CC(C)C)C(=O)N[C@@H](CO)C(=O)N[C@@H](CC(C)C)C(=O)N[C@@H](CC(=O)O)C(=O)N[C@H](C(=O)N1CCC[C@H]1C(=O)N[C@H](C(=O)N[C@@H](CCCCN)C(=O)N[C@@H](CC(C)C)C(=O)N[C@@H](CCCCNC(=O)COCCOCCNC(=O)COCCOCCNC(=O)CC[C@H](NC(=O)CCCCCCCCCCCCCCCCC(=O)O)C(=O)O)C(=O)N[C@@H](CCC(N)=O)C(=O)N[C@H](C(=O)N[C@@H](CC(C)C)C(=O)N[C@@H](CC(C)C)C(=O)N[C@@H](CCC(=O)O)C(=O)N[C@@H](CCC(N)=O)C(=O)N[C@@H](CCC(=O)O)C(=O)N[C@@H](CCCNC(=N)N)C(=O)N[C@@H](CCC(N)=O)C(=O)N[C@@H](CCCNC(=N)N)C(=O)N[C@@H](CCCCN)C(=O)N[C@@H](CCC(=O)O)C(=O)N[C@@H](CCCNC(=N)N)C(=O)N[C@@H](CCC(N)=O)C(=O)N[C@@H](CCC(N)=O)C(=O)N[C@@H](C)C(=O)N[C@@H](CCC(=O)O)C(=O)N[C@H](C(=O)N[C@@H](CC(N)=O)C(=O)N[C@@H](C)C(=O)N[C@@H](CCC(N)=O)C(=O)N[C@H](C(=O)N[C@@H](CC(C)C)C(=O)N[C@@H](C)C(=O)N[C@@H](CCC(N)=O)C(=O)N[C@H](C(N)=O)C(C)C)[C@@H](C)CC)[C@@H](C)O)[C@@H](C)CC)[C@@H](C)CC)C(C)C)C(C)C [compound 39] (H-IVLSLDVPIKLK([AEEA-AEEA-γGlu-C18 diacid])QILLEQERQRKERQQAETNAQILAQV-NH2) |
| 11.5 nM | 1.9 nM |  |  |  |  | > 9800 µg/mL | CC[C@H](C)[C@H](N)C(=O)N[C@H](C(=O)N[C@@H](CC(C)C)C(=O)N[C@@H](CO)C(=O)N[C@@H](CC(C)C)C(=O)N[C@@H](CC(=O)O)C(=O)N[C@H](C(=O)N1CCC[C@H]1C(=O)N[C@H](C(=O)N[C@@H](CCCCN)C(=O)N[C@@H](CC(C)C)C(=O)N[C@@H](CCCCNC(=O)COCCOCCNC(=O)COCCOCCNC(=O)CC[C@H](NC(=O)CCCCCCCCCCCCCCCCC(=O)O)C(=O)O)C(=O)N[C@@H](CCC(N)=O)C(=O)N[C@H](C(=O)N[C@@H](CC(C)C)C(=O)N[C@@H](CC(C)C)C(=O)N[C@@H](CCC(=O)O)C(=O)N[C@@H](CCC(N)=O)C(=O)N[C@@H](C)C(=O)N[C@@H](CCCCN)C(=O)N[C@@H](CCC(N)=O)C(=O)N[C@@H](CCCCN)C(=O)N[C@@H](CCCCN)C(=O)N[C@@H](CC(C)C)C(=O)N[C@@H](CCCNC(=N)N)C(=O)N[C@@H](C)C(=O)N[C@@H](CCC(N)=O)C(=O)N[C@@H](C)C(=O)N[C@@H](CCC(=O)O)C(=O)N[C@H](C(=O)N[C@@H](CC(N)=O)C(=O)N[C@H](C(=O)N[C@@H](CCCNC(=N)N)C(=O)N[C@H](C(=O)N[C@@H](CC(C)C)C(=O)N[C@@H](CCC(=O)O)C(=O)N[C@@H](CCCNC(=N)N)C(=O)N[C@H](C(N)=O)C(C)C)[C@@H](C)CC)C(C)C)[C@@H](C)O)[C@@H](C)CC)[C@@H](C)CC)C(C)C)C(C)C [compound 43] (H-IVLSLDVPIKLK([AEEA-AEEA-γGlu-C18 diacid])QILLEQAKQKKLRAQAETNVRILERV-NH2; N-terminus assumed) |

— patent publication US12679878B2, “CRF2 receptor agonists and their use in therapy” (SANOFI, priority 2020, dated 2026)
